pEC50: −log10 of the molar value.

Broadly, the pEC50 is the EC50 on a negative log10 scale, so that one unit is a factor of ten.

The test system of the assay is HCV 1b-377-neo replicon cells. Put plainly: HCV replicon assay, HCV 1b-377-neo replicon cells (1b FRET). The assay is classed as cell-based, Hepatitis C virus genotype 1b. As to conditions: Hepatitis C virus, HCV 1b-377-neo replicon cells; HCV 1b genotype; read-out: EC50 range against HCV 1b (Table 2, Range). A digest of the protocol: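 Compounds were tested in genotype 1b subgenomic replicon cells carrying a neomycin marker, alongside a matched replicon line with an NS5A Y2065H substitution that confers resistance to a reference NS5A inhibitor.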
For `C[C@H](NS(C)(=O)=O)C(=O)N1CCC[C@H]1c1nc(-c2ccc(-c3ccc(-c4cnc([C@@H]5CCCN5C(=O)[C@H](C)NS(C)(=O)=O)[nH]4)cc3)cc2)c[nH]1` [Example F69, N-((1S)-1-methyl-2-((2S)-2-(5-(4′-(2-((2S)-1-(N-(methylsulfonyl)-L-alanyl)-2-pyrrolidinyl)-1H-imidazol-4-yl)-4-biphenylyl)-1H-imidazol-2-yl)-1-pyrrolidinyl)-2-oxoethyl)methanesulfonamide], the negative logarithm of the EC50 (pEC50) is 6.00 to 7.00. In the case of `COC(=O)N[C@H](C(=O)N1CCC[C@H]1c1ncc(-c2ccc(-c3ccc(-c4[nH]c([C@@H]5CCCN5C(=O)[C@@H](NC(=O)OC)C(C)C)nc4CC4OCCCO4)cc3)cc2)[nH]1)C(C)C` [Example J14, methyl ((1S)-1-(((2S)-2-(4-(1,3-dioxan-2-ylmethyl)-5-(4′-(2-((2S)-1-((2S)-2-((methoxycarbonyl)amino)-3-methylbutanoyl)-2-pyrrolidinyl)-1H-imidazol-4-yl)-4-biphenylyl)-1H-imidazol-2-yl)-1-pyrrolidinyl)carbonyl)-2-methylpropyl)carbamate], the pEC50 is 9.00 to 12.00. `COC(=O)N[C@H](C(=O)N1CCC[C@H]1c1ncc(-c2ccc(-c3ccc(-c4nc([C@@H]5CCCN5C(=O)[C@@H](NC(=O)OC)[C@@H](C)OC)[nH]c4CC(OC)OC)cc3)cc2)[nH]1)[C@@H](C)OC` [Example J14a, methyl ((1S,2R)-1-(((2S)-2-(4-(2,2-dimethoxyethyl)-5-(4′-(2-((2S)-1-(N-(methoxycarbonyl)-O-methyl-L-threonyl)-2-pyrrolidinyl)-1H-imidazol-4-yl)-4-biphenylyl)-1H-imidazol-2-yl)-1-pyrrolidinyl)carbonyl)-2-methoxypropyl)carbamate]: the pEC50 is 9.00 to 12.00.

For `COC(=O)N[C@H](C(=O)N1CCC[C@H]1c1ncc(-c2ccc(-c3ccc(-c4nc([C@@H]5CCCN5C(=O)[C@@H](NC(=O)OC)C(C)C)[nH]c4CC(OC)OC)cc3)cc2)[nH]1)C(C)C` [Example J14a.1, methyl ((1S)-1-(((2S)-2-(4-(2,2-dimethoxyethyl)-5-(4′-(2-((2S)-1-((2S)-2-((methoxycarbonyl)amino)-3-methylbutanoyl)-2-pyrrolidinyl)-1H-imidazol-4-yl)-4-biphenylyl)-1H-imidazol-2-yl)-1-pyrrolidinyl)carbonyl)-2-methylpropyl)carbamate], the pEC50 is 9.00 to 12.00. The figure for `COC(=O)Cc1[nH]c([C@@H]2CCCN2C(=O)[C@@H](NC(=O)OC)[C@@H](C)OC)nc1-c1ccc(-c2ccc(-c3cnc([C@@H]4CCCN4C(=O)[C@@H](NC(=O)OC)[C@@H](C)OC)[nH]3)cc2)cc1` [Example J14b, methyl (2-((2S)-1-(N-(methoxycarbonyl)-O-methyl-L-threonyl)-2-pyrrolidinyl)-4-(4′-(2-((2S)-1-(N-(methoxycarbonyl)-O-methyl-L-threonyl)-2-pyrrolidinyl)-1H-imidazol-4-yl)-4-biphenylyl)-1H-imidazol-5-yl)acetate] is 9.00 to 12.00. The figure for `COC(=O)Cc1[nH]c([C@@H]2CCCN2C(=O)[C@@H](NC(=O)OC)C(C)C)nc1-c1ccc(-c2ccc(-c3cnc([C@@H]4CCCN4C(=O)[C@@H](NC(=O)OC)C(C)C)[nH]3)cc2)cc1` [Example J14b.1, methyl (2-((2S)-1-(N-(methoxycarbonyl)-L-valyl)-2-pyrrolidinyl)-4-(4′-(2-((2S)-1-(N-(methoxycarbonyl)-L-valyl)-2-pyrrolidinyl)-1H-imidazol-4-yl)-4-biphenylyl)-1H-imidazol-5-yl)acetate] is 9.00 to 12.00.

Turning to `CCCc1[nH]c([C@@H]2CCCN2C(=O)[C@H](C)NC(=O)OC)nc1-c1ccc(-c2ccc(-c3cnc([C@@H]4CCCN4C(=O)[C@H](C)NC(=O)OC)[nH]3)cc2)cc1` [Example J14c, methyl ((1S)-2-((2S)-2-(4-(4′-(2-((2S)-1-(N-(methoxycarbonyl)-L-alanyl)-2-pyrrolidinyl)-4-propyl-1H-imidazol-5-yl)-4-biphenylyl)-1H-imidazol-2-yl)-1-pyrrolidinyl)-1-methyl-2-oxoethyl)carbamate], the pEC50 was 9.00 to 12.00. As for `CCCc1[nH]c([C@@H]2CCCN2C(=O)[C@@H](c2ccccc2)N(CC)CC)nc1-c1ccc(-c2ccc(-c3cnc([C@@H]4CCCN4C(=O)[C@@H](c4ccccc4)N(CC)CC)[nH]3)cc2)cc1` [Example J14c.1, (1R)-2-((2S)-2-(4-(4′-(2-((2S)-1-((2R)-2-(diethylamino)-2-phenylacetyl)-2-pyrrolidinyl)-1H-imidazol-4-yl)-4-biphenylyl)-5-propyl-1H-imidazol-2-yl)-1-pyrrolidinyl)-N,N-diethyl-2-oxo-1-phenylethanamine], the pEC50 was 9.00 to 12.00. As to `CCCc1[nH]c([C@@H]2CCCN2C(=O)[C@@H](NC(=O)OC)C(C)C)nc1-c1ccc(-c2ccc(-c3cnc([C@@H]4CCCN4C(=O)[C@@H](NC(=O)OC)C(C)C)[nH]3)cc2)cc1` [Example J14c.2, methyl ((1S)-1-(((2S)-2-(4-(4′-(2-((2S)-1-((2S)-2-((methoxycarbonyl)amino)-3-methylbutanoyl)-2-pyrrolidinyl)-1H-imidazol-4-yl)-4-biphenylyl)-5-propyl-1H-imidazol-2-yl)-1-pyrrolidinyl)carbonyl)-2-methylpropyl)carbamate], the pEC50 is 9.00 to 12.00. For `COC(=O)N[C@H](C(=O)N1CC(F)(F)C[C@H]1c1nc(-c2ccc(-c3ccc(-c4cnc([C@@H]5CCCN5C(=O)[C@@H](NC(=O)OC)C(C)C)[nH]4)c(F)c3)cc2)c[nH]1)C(C)C` [Example J14e, methyl ((1S)-1-(((2S)-4,4-difluoro-2-(4-(3′-fluoro-4′-(2-((2S)-1-((2S)-2-((methoxycarbonyl)amino)-3-methylbutanoyl)-2-pyrrolidinyl)-1H-imidazol-4-yl)-4-biphenylyl)-1H-imidazol-2-yl)-1-pyrrolidinyl)carbonyl)-2-methylpropyl)carbamate] the value was 9.00 to 12.00.

Turning to `CCN(CC)[C@@H](C(=O)N1CC(F)(F)C[C@H]1c1nc(-c2ccc(-c3ccc(-c4cnc([C@@H]5CCCN5C(=O)[C@@H](c5ccccc5)N(CC)CC)[nH]4)c(F)c3)cc2)c[nH]1)c1ccccc1` [Example J14e.1, (1R)-2-((2S)-2-(4-(4′-(2-((2S)-1-((2R)-2-(diethylamino)-2-phenylacetyl)-4,4-difluoro-2-pyrrolidinyl)-1H-imidazol-4-yl)-3-fluoro-4-biphenylyl)-1H-imidazol-2-yl)-1-pyrrolidinyl)-N,N-diethyl-2-oxo-1-phenylethanamine], the pEC50 was 9.00 to 12.00. As to `COC(=O)N[C@H](C(=O)N1CCC[C@H]1c1ncc(-c2ccc(-c3ccc(-c4nc([C@@H]5CCCN5C(=O)[C@@H](NC(=O)OC)C(C)C)[nH]c4CO)cc3)cc2)[nH]1)C(C)C` [Example J14f, methyl ((1S)-1-(((2S)-2-(4-(hydroxymethyl)-5-(4′-(2-((2S)-1-((2S)-2-((methoxycarbonyl)amino)-3-methylbutanoyl)-2-pyrrolidinyl)-1H-imidazol-4-yl)-4-biphenylyl)-1H-imidazol-2-yl)-1-pyrrolidinyl)carbonyl)-2-methylpropyl)carbamate], the negative logarithm of the EC50 (pEC50) was 9.00 to 12.00. `COC(=O)N[C@@H](C)C(=O)N1CCC[C@H]1c1ncc(-c2ccc(-c3ccc(-c4nc([C@@H]5CCCN5C(=O)[C@H](C)NC(=O)OC)[nH]c4CO)cc3)cc2)[nH]1` [Example J14f.1, methyl ((1S)-2-((2S)-2-(4-(4′-(4-(hydroxymethyl)-2-((2S)-1-(N-(methoxycarbonyl)-L-alanyl)-2-pyrrolidinyl)-1H-imidazol-5-yl)-4-biphenylyl)-1H-imidazol-2-yl)-1-pyrrolidinyl)-1-methyl-2-oxoethyl)carbamate]: the pEC50 is 7.00 to 9.00. In the case of `COC(=O)N[C@@H](C(=O)N1CCC[C@H]1c1ncc(-c2ccc(-c3ccc(-c4[nH]c([C@@H]5CCCN5C(=O)[C@H](NC(=O)OC)c5ccccc5)nc4C(=O)OC)cc3)cc2)[nH]1)c1ccccc1` [Example J16, methyl 2-((2S)-l-((2R)-2-((methoxycarbonyl)amino)-2-phenylacetyl)-2-pyrrolidinyl)-5-(4′-(2-((2S)-1-((2R)-2-((methoxycarbonyl)amino)-2-phenylacetyl)-2-pyrrolidinyl)-1H-imidazol-5-yl)-4-biphenylyl)-1H-imidazole-4-carboxylate], the pEC50 was 9.00 to 12.00. In the case of `COC(=O)c1nc([C@@H]2CCCN2C(=O)[C@@H](c2ccccc2)N(C)C)[nH]c1-c1ccc(-c2ccc(-c3cnc([C@@H]4CCCN4C(=O)[C@@H](c4ccccc4)N(C)C)[nH]3)cc2)cc1` [Example J17, methyl 2-((2S)-l-((2R)-2-(dimethylamino)-2-phenylacetyl)-2-pyrrolidinyl)-5-(4′-(2-((2S)-1-((2R)-2-(dimethylamino)-2-phenylacetyl)-2-pyrrolidinyl)-1H-imidazol-5-yl)-4-biphenylyl)-1H-imidazole-4-carboxylate], the pEC50 is 9.00 to 12.00. Turning to `COC(=O)c1nc([C@@H]2CCCN2C(=O)[C@@H](c2ccccc2)N2CCCCC2)[nH]c1-c1ccc(-c2ccc(-c3cnc([C@@H]4CCCN4C(=O)[C@@H](c4ccccc4)N4CCCCC4)[nH]3)cc2)cc1` [Example J18, methyl 2-((2S)-1-((2R)-2-phenyl-2-(1-piperidinyl)acetyl)-2-pyrrolidinyl)-5-(4′-(2-((2S)-1-((2R)-2-phenyl-2-(1-piperidinyl)acetyl)-2-pyrrolidinyl)-1H-imidazol-5-yl)-4-biphenylyl)-1H-imidazole-4-carboxylate], the negative-log EC50 (pEC50) was 9.00 to 12.00. The figure for `CCOC(=O)c1nc([C@@H]2CCCN2C(=O)[C@H](NC(=O)OC)c2ccccc2)[nH]c1-c1ccc(-c2ccc(-c3cnc([C@@H]4CCCN4C(=O)[C@H](NC(=O)OC)c4ccccc4)[nH]3)cc2)cc1` [Example J19, ethyl 2-((2S)-1-((2R)-2-((methoxycarbonyl)amino)-2-phenylacetyl)-2-pyrrolidinyl)-5-(4′-(2-((2S)-1-((2R)-2-((mcthoxycarbonyl)amino)-2-phenylacetyl)-2-pyrrolidinyl)-1H-imidazol-5-yl)-4-biphenylyl)-1H-imidazole-4-carboxylate] is 9.00 to 12.00.

(Values after patent US8574563B2 (Bristol-Myers Squibb Company, priority 2006, dated 2013).)
